The source of these data is a melting point compilation (Tetko et al.; mined from patent text by program, amines drawn as free bases though some values may be those of a salt).

A value given as a limit tells only on which side of the number the result lay.

Take `O=C(N[C@@H]1CCC[C@H]1O)C(O)=CC(=O)c1cc(Cc2ccc(F)cc2F)cn(Cc2ccccc2F)c1=O`: the melting point was in the range of 55 to 57 °C.

Take `CN(C)S(=O)(=O)c1cc2c(c(Cl)c1Cl)OC(C(=O)O)C2` (configuration not stated): the melting point turned out to be 154 °C.

For `CC1(c2ccccc2)C(=O)Nc2ccc(Cl)cc21` (configuration not stated), the melting point lay within 180 to 181 °C.

For the molecule `O=C(O)c1cc(F)c(F)c(I)c1F`, the melting point was 122 to 124 °C.

`COC(=O)/C=C/n1cnc2c(C(C)C)cc(C(C)C)cc2c1=O`: the melting point was in the range of 102 to 103 °C.

Molecule `COCCCn1ccc2c1CC(c1ccccc1Cl)C1C(=O)NC(=O)C21` (configuration not stated) gave a melting point of 75 to 90 °C.

`C=CCO/N=C(\C(=O)OC)c1csc(NC(c2ccccc2)(c2ccccc2)c2ccccc2)n1` had a melting point of 115 to 116 °C.

`C[C@@H](CC(=O)O)OC(=O)OCc1ccc([N+](=O)[O-])cc1` gave a melting point of 78 to 81 °C.

`CC(NC(=O)OC(C)(C)C)C(=O)NC1CCN(c2c(F)cc3c(=O)c(C(=O)O)cn(C4CC4)c3c2F)C1` (configuration not stated) registered a melting point of 185 to 187 °C.

Molecule `CC(C)Sc1cc2c(cc1Cl)N=C(c1ccncc1)NS2(=O)=O` had a melting point of 254 to 256 °C.

`CCOC(=O)c1nc2sc([N+](=O)[O-])c(C)c2c(=O)[nH]1` gave a melting point of 229 to 230 °C.

`COc1cc(OC)c(-c2cc3ccccc3[nH]2)cc1C=CC(=O)c1ccc(S(=O)(=O)N(C)C)cc1` showed a melting point of 158 to 162 °C.

`Cc1nn(C)c2c(Cl)ncnc12` gave a melting point of 92 to 95 °C.

In turn, `CC(C)C=NNC1=NS(=O)(=O)c2ccccc21` showed a melting point of 225 °C.

The molecule `CC(=O)N1c2ccccc2Sc2cc(F)ccc21` had a melting point of 125 °C.

Take `COc1cc2c(cc1OC)C1NC(=O)CCC1=C2c1ccccc1` (configuration not stated): the melting point lay in the range of 259 to 260 °C.

`CCNn1cc(C(=O)O)c(=O)c2cc3c(cc21)OCO3`: the melting point was determined as 242 °C.

The molecule `C[C@]1(COc2ccc(N3CCC(COCc4ccc(C(F)(F)F)cc4)CC3)cc2)Cn2cc([N+](=O)[O-])nc2O1` returned a melting point of 172 to 173 °C.

In turn, `COc1cc(-n2nc(C(F)(F)F)cc2-c2ccc(S(C)(=O)=O)cc2)ccc1Br` had a melting point of 156 to 157 °C.

With `CCCOCCOc1ccc(-c2ccc3c(c2)C=C(C(=O)O)CCCN3CC(C)C)cc1`, the melting point is 142 to 144 °C.

The molecule `NC(=O)CCCC1(c2ccccc2)CC(O)=CC(=O)O1` (configuration not stated) came in with a melting point of 51 to 54 °C.

Consider `FC(F)c1nc2ccccc2n1-c1nc(NCc2cccnc2)nc(N2CCOCC2)n1`, for which the melting point lay in the range of 160 to 161 °C.

Molecule `COC(=O)C(Oc1cc(OCc2ccsc2)ccc1C#N)c1ccccc1Cl` (racemic) displayed a melting point of 102 to 104 °C.

In the case of `O=C(O)CCOc1cccc2c1Cc1sc(S(=O)(=O)CCC(c3ccccc3)c3ccccc3)nc1-2`, the melting point was 215 to 218 °C.

Molecule `CC(=O)c1c(-c2cccs2)[nH]c(-c2ccncc2)c1C` gave a melting point of 231 to 232 °C.

`Cc1cccc2c1CCC(=NO)C2(O)C(F)(F)F` (configuration not stated) yielded a melting point of 154 to 156 °C.

Turning to `CC(=O)OCC1OC(n2cnc3c(Cl)nc(N)nc32)C(OC(C)=O)C1OC(C)=O` (configuration not stated), the melting point is 58 to 60 °C.

`CC(C)(C)c1cc(C(=O)NCc2ccc3c(Br)c(OC(Cc4ccccc4)C(=O)O)ccc3c2)cc(C(C)(C)C)c1` (configuration not stated) showed a melting point of 160 to 163 °C.

Consider `CS(=O)(=O)Nc1ccc(CCBr)cc1`, for which the melting point is 92 to 94 °C.

In the case of `Cc1c2c(cc3c(=O)c4ccccc4oc13)CC(C(=O)O)O2` (configuration not stated), the melting point was in the range of 297 to 299 °C.

As to `Cc1nc(-c2c(C)c(C#N)c3nc(C4CC4)oc3c2N2CC[C@H](N(C)C)C2)cs1`, the melting point was 167 to 168 °C.

As to `Cc1ccn(-c2ccc(C(=O)N3Cc4cccnc4Nc4ccccc43)c(C(F)(F)F)c2)n1`, the melting point fell in the range of 183 to 185 °C.

In the case of `NC(=O)c1nccn1C1Cc2cc(F)ccc2C1=O` (configuration not stated), the melting point is 221 °C.

`N#CCCCCCCCn1c(-c2ccccc2)nc(-c2ccccc2)c1-c1ccccc1` had a melting point of 93 to 94 °C.

Turning to `O=C(O)c1ccccc1C=Cc1cccc(Br)c1`, the melting point lay in the range of 145 to 150 °C.

Molecule `Cc1cccc(C)c1N(CCCC(=O)NCCCC(=O)O)C(=O)c1ccc(Cl)cc1` yielded a melting point of 141 to 142 °C.

On to `CC1(C)Oc2ccc(C#N)cc2[C@@H](O)[C@@H]1Br` (relative stereo), for which the melting point amounted to 128 °C.

`Oc1nn(-c2ccccc2)c2ccccc12` showed a melting point of 209 to 211 °C.

The molecule `Cc1ccc(C2=CCN(CCCn3c(=O)[nH]c4cccc(C)c4c3=O)CC2)cc1` came in with a melting point of 165 to 170 °C.

The molecule `CCCCCCCCCCCCCCCCCCNC(=O)OCC(CNS(=O)(=O)CCCI)NC(C)=O` (configuration not stated) yielded a melting point of 101 to 102 °C.

As for `Cc1cc(NC(=O)N(C)c2ccccc2)cc(C)c1S(=O)(=O)C[N+](=O)[O-]`, the melting point lay within 117 to 118 °C.

`CC(C)(C)C(O)CN1C(=O)C(N)C(=O)N(c2ccccc2F)c2ccccc21` (configuration not stated) registered a melting point of 104 to 105 °C.

As for `CC(Cc1ccc(F)cc1)(NC(=O)CNC(=O)CN)c1ccc(F)cc1` (configuration not stated), the melting point was 139 to 140 °C.

Molecule `O=C(Nc1ccc(-n2nc(C(F)(F)F)cc2C2CC2)c(F)c1)c1c(F)cccc1F` gave a melting point of 193 to 196 °C.

The molecule `CC(C)C[C@H](NC(=O)C=Cc1ccccc1)C(=O)N[C@@H](Cc1ccccc1)C(=O)CSCc1ccco1` displayed a melting point of 141 to 143 °C.

Molecule `Clc1ccc2nc(NC3=NCCN3)[nH]c2c1` registered a melting point of 241 to 242 °C.

In turn, `COC(=O)[C@H](Cc1cc(Cl)c(Oc2ccc3cc(OC)ccc3c2)c(Cl)c1)NC(=O)C(F)(F)F` yielded a melting point of 188 to 189 °C.

`CCCCCCCCCCCCCCCCCCN(C)P1OCC2(CO1)COP(N(C)CCCCCCCCCCCCCCCCCC)OC2` (configuration not stated) gave a melting point of 70 to 72 °C.

Take `CCOC(=O)C(=C1NCCCN1OC)[N+](=O)[O-]`: the melting point was 177 to 178 °C.

In turn, `C[Si](C)(C)Sc1nnnn1-c1ccccc1` showed a melting point of 67 to 68 °C.

Molecule `CCCCCCCCc1ccc(C=CCO)cc1` returned a melting point of 30 °C.

Molecule `Nc1nc2cc(F)ccc2s1` came in with a melting point of 167 °C.

Turning to `CC(=O)Oc1ccc2c(=O)c(C=O)coc2c1`, the melting point is 157 to 159 °C.

Turning to `CCOC(=O)COc1ccc(C(=O)Nc2ccccc2Sc2ccccc2-c2nnn[nH]2)cc1OC`, the melting point fell in the range of 179 to 181 °C.

Regarding `CCOC(=O)c1c(SCc2ccc(OC)cc2)[nH]c2cc(Cl)c(F)cc2c1=O`, the melting point was determined as 142 °C.

With `CC(C(=O)O)n1c(-c2ccc(Cl)cc2)nc2cccnc21` (configuration not stated), the melting point was 226 to 229 °C.

As for `CCCN1c2nc(-c3cn[nH]c3)ccc2NC(=O)c2cccnc21`, the melting point was in the range of 291 to 292 °C.

Take `Cc1cccc(-c2[nH]c(C(C)C)nc2-c2cccc(-c3ccc(OC(F)(F)F)cc3)c2)n1`: the melting point was 120 to 122 °C.

In turn, `COc1cccc(CCc2c(CC#N)ccc(OC)c2OC)c1` had a melting point of 98 to 100 °C.

In the case of `CCOC(=O)/C=C/c1oc2cccc(O)c2c1C`, the melting point is 180 to 182 °C.

`O=C(O)C(=O)Nc1cccc(NC(=O)C(=O)O)n1` registered a melting point of more than 310 °C.

For the molecule `O=[N+]([O-])c1cc(CCl)cc([N+](=O)[O-])c1CCl`, the melting point was determined as 106 °C.

In the case of `O=C(NC[C@H]1CC[C@@H](Oc2ccc(F)cc2)CC1)c1ccc(O)cc1`, the melting point stood at 170 °C.

In turn, `Cc1cc(-n2cnc(CO)c2)ccc1C(C)C` registered a melting point of 98 to 102 °C.

Regarding `CCCCCCCCCCCCCCCCC(C(=O)O)S(C)=O` (configuration not stated), the melting point lay in the range of 93 to 97 °C.

In turn, `O=C(O)Cc1c(C(=O)c2ccc(Cl)cc2)[nH]c2ccc(Cl)cc12` registered a melting point of 220 to 224 °C.

Regarding `COc1ccnc2c1C(=O)c1c(-c3ccccc3NC(=O)C(F)(F)F)ccnc1C2=O`, the melting point came to 158 °C.

Take `CC(=O)Nc1nc(N)nc(-c2ccc(S(=O)(=O)c3ccccc3)cc2)n1`: the melting point was more than 260 °C.

The molecule `O=C(O)CC1=C(c2ccccc2)c2ccccc2OC1` returned a melting point of 147 to 149 °C.

Regarding `Cc1ccc(-n2ccc(=O)c(-c3ccnn3-c3ccccc3)n2)cc1`, the melting point is 182 to 183 °C.

As to `OCCCc1cc(-c2ccc(Cl)cc2)n(-c2c(Cl)cncc2Cl)n1`, the melting point is 108 to 110 °C.

`COc1ccc(-c2cc(=O)c(C(=O)O)cn2C2CC2)cc1`: the melting point was 159 to 161 °C.

As for `CCc1ccc2c(c1)cc(C(=O)Nc1nc(-c3c(OC)cc(C)cc3OC)n(CCC3CCCCC3)n1)n2CC(=O)OC`, the melting point was found to be 191 °C.

The molecule `Cn1ncc(C(=O)Nc2ccc(F)cc2Cl)c1N` had a melting point of 176 to 177 °C.

Molecule `S=C=Nc1ccc2oc(-c3sccc3CN3CCOCC3)nc2c1` displayed a melting point of 117 to 118 °C.

`COc1cc2c(cc1O)[nH]c1cc(-c3ccccc3Cl)c3c(c12)C(=O)NC3=O` displayed a melting point of 194 to 196 °C.

With `CN1[C@H]2CC[C@@H]1[C@H](C(=O)Oc1ccc(Cl)cc1)[C@@H](c1ccc(F)cc1)C2`, the melting point lay within 64 to 66 °C.

As for `CCOC(=O)c1ccccc1CCc1ccc2oc(-c3nc(C(C)(C)C)cs3)cc2c1`, the melting point was 75 to 77 °C.

`Nc1nc2ccccc2c2c1nc(CF)n2Cc1cc(-c2ccc(F)cc2)no1` displayed a melting point of 192 to 193 °C.

The molecule `O=C1C(=O)N(c2cccc3ccccc23)C(=O)N1c1ccc(Cl)cc1` yielded a melting point of 158 °C.

Molecule `CCOc1cc2c(cc1OCC)[C@@H]1CCCC[C@@H]1N=C2c1ccc(O)nc1` (racemic) gave a melting point of 211 to 213 °C.

In turn, `O=C1CC(c2cccc(-n3ccnc3)c2)=Nc2cc(O)c(-c3ccc(F)cc3)cc2N1` had a melting point of 250 °C.

`O=C(Nc1cc(O)c(Cl)cc1F)OCc1ccccc1` came in with a melting point of 70 to 72 °C.

In turn, `O=C1C=C(O)CC(c2ccc3c(c2)OCCO3)C1` (configuration not stated) displayed a melting point of 188 °C.

Take `CCOC(OCC)c1cc(-n2c(=O)cc(C(F)(F)F)n(N)c2=O)ccc1Cl`: the melting point was 80 to 81 °C.

Molecule `Cc1c(F)c(N2CCC(n3ccnn3)CC2)c(F)c2c1c(=O)c(C(=O)O)cn2C1CC1` gave a melting point of 261 to 263 °C.

As to `CCN(c1nc(C)cc(C)n1)c1c(O)cc(OC)cc1Br`, the melting point lay within 157 to 160 °C.

As a reminder, the melting point is the temperature, or range, at which the solid turns liquid.
